Like-named read-outs stand apart in the source and are kept apart here.
Assays:
[1] = system: ethanol-induced gastric ulcers (lesions); assay: Ethanol-induced ulcer model in the rat; format: in vivo, Adult male Long-Evans rats; details: for inhibition in vivo at 30 mg/kg: 30 mg/kg p.o.; for inhibition in vivo at 50 mg/kg: 50 mg/kg p.o.
Method: The effectiveness of the compounds of Formula I as cytoprotective agents was determined by an ethanol-induced ulcer model in the rat. This model is a modification of the procedure described by A. Robert in Scand. J. Gastroenterology 16: (Suppl. 67): 243 (1981). This model which screens for cytoprotective compounds is based on the ability of 100% ethanol to produce gastric ulcers (primarily in the fundic region of the stomach) in rats in a dose-related manner. Further details of the model are described below.
Adult male Long-Evans rats weighing 275-300 grams (Blue Spruce Farm, Alton, N.Y.) are used. Animals are housed individually in stainless steel cages with wire-mesh bottoms. The housing battery is arranged into six groups of five each, individually numbered from rat number 1, group 1 to rat number 5, group 6. Food and water are removed 24 and 18 hours, respectively, prior to testing. On the following day animals receive the test compound either p.o., s.c. or i.p. 30 minutes or more before administration of 100% ethanol (3.0 ml/kg) by gavage. Sixty minutes later the animals are sacrificed by administration of T-61 (Hoechst), 0.2 ml i.p.
An abdominal incision is made and, after clamping the esophagus just above the esophageal sphincter with tweezers, the stomach is carefully lifted from the abdominal cavity. Two cuts are made approximately 1/2" below the pyloric valve and 1/2" above the esophageal sphincter, and the stomach removed and set aside. This step is very rapid (2-3 seconds) and no loss of gastric contents is apparent. The size of the stomach including contents is noted as small, medium or large. Stomachs are cut open along the lesser curvature and the contents expressed into graduated centrifuge tubes.
Under these conditions, ethanol produces prominent macroscopic lesions in the corpus, but gross macroscopic changes are only very rarely observed in the forestomach. […] In addition, absence of the forestomach allows the remaining stomach to lie flat on a surface for photography and examination without undue stretching of the tissue. For these reasons, the forestomach (along with nongastric tissue) is removed.
The remaining corpus and antrum are rinsed in water and placed flat in a standard position. The tissue is photographed with a Polaroid close-up camera and scoring of lesions is done from this permanent record. Each photograph includes a reference scale in mm. Two scoring systems are used. For screening purposes each stomach is graded on a scale of 0 to 3 as described below:
Where more precise data are needed, e,g, in determining the ED50 for a compound, the total lesion area in mm is measured. Barely visible spots (petechiae) are scored as 1 mm each. For each treatment group, an average score is calculated. From this, the percent inhibition of lesion formation, I, is calculated as:
I=Lesion Score (controls)-Lesion Score(treated)X 100 Lesion Score(controls)
In dose-response studies, the ED50 (dose at which 50% inhibition of lesion formation occurs) is determined by probit analysis according to Finney.

[2] = system: aspirin-stress gastric ulcer; assay: Aspirin-stress gastric ulcer model in rats; format: in vivo; details: 100 mg/kg p.o.
Method: (§1) The compound of Formula I wherein R^4 is methyl and R^1, R^2 and R^3 are each hydrogen was also tested in several other ulcer models. […] The results in the above models are probably indicative of the lack of significant anti-secretory activity in the compound of the present invention.

[3] = system: cysteamine-induced duodenal ulcer; assay: Cysteamine-induced duodenal ulcer model in rats; format: in vivo; details: dosed seven times over 30 hours (40 mg/kg, p.o.)
Method: as §1

[4] = system: gastric secretion; assay: Gastric secretion in the conscious gastric fistula rat; format: in vivo; details: oral, read-out: oral ED50, block of gastric secretion
Method: as §1

[5] = system: HCl-induced gastric lesions; assay: HCl-induced gastric lesions in the rat; format: in vivo; details: po, read-out: ED50 against HCl-induced gastric lesions
[6] = po, rat, read-out: Antiulcer Activity, % Inhibition (of lesion formation)

O=c1c(-c2nnn[nH]2)cnc2ccc(Cl)cn12
inhibition in vivo at 12.6 mg/kg ([1]; po, 12.6 mg/kg p.o., rat, read-out: Antiulcer Activity, % Inhibition (of lesion formation)): 93%

O=c1c(-c2nnn[nH]2)cnc2c3c(ccn12)CCCC3
inhibition in vivo at 30 mg/kg [1, 6]: 68%

Cc1cccc2ncc(-c3nnn[nH]3)c(=O)n12
inhibition in vivo at 30 mg/kg [1, 6]: 75%

Cc1ccc2ncc(-c3nnn[nH]3)c(=O)n2c1
inhibition in vivo at 30 mg/kg [1, 6]: 79%

CCCCc1ccc2ncc(-c3nnn[nH]3)c(=O)n2c1
inhibition in vivo at 30 mg/kg [1, 6]: 54%

Cc1cc(C)c2ncc(-c3nnn[nH]3)c(=O)n2c1
inhibition in vivo at 30 mg/kg [1, 6]: 92%

Cc1ccn2c(=O)c(-c3nnn[nH]3)cnc2c1
inhibition in vivo at 30 mg/kg [1, 6]: 70%

CCc1cccn2c(=O)c(-c3nnn[nH]3)cnc12
inhibition in vivo at 50 mg/kg [1, 6]: 96%

CCCc1cccn2c(=O)c(-c3nnn[nH]3)cnc12
inhibition in vivo at 30 mg/kg [1, 6]: 77%

CCCCc1cccn2c(=O)c(-c3nnn[nH]3)cnc12
inhibition in vivo at 50 mg/kg [1, 6]: 41%

Cc1cccn2c(=O)c(-c3nnn[nH]3)cnc12
activity in aspirin-stress gastric ulcer model [2]: inactive
activity in cysteamine-induced duodenal ulcer model [3]: inactive
ED50 [4]: 27 mg/kg
ED50 [5]: 20.8 mg/kg

CN/C(=N/CCSCc1nc[nH]c1C)NC#N [Cimetidine, reference compound]
ED50 ([1]; Rattus norvegicus): 235 mg/kg

CCCCC[C@H](O)/C=C/[C@H]1[C@H](O)CC(=O)[C@@H]1C/C=C\CCCC(=O)O [PGE2, reference compound]
ED50 ([1]; oral, rat, read-out: oral ED50): 0.024 mg/kg

Cc1cccn2c(=O)c(-c3nnn[nH]3)cnc12 [drawing 30]
inhibition in vivo at 30 mg/kg [1, 6]: 88%
ED50 ([1]; po, rat, table footnote, read-out: ED50 (dose at which 50% inhibition of lesion formation occurs)): 0.3 mg/kg

sucralfate [reference compound]
oral ED50 ([1]; oral, rat): 21 mg/kg

Reference: US4457932A, “Anti-ulcer agents” (Bristol-Myers Company, priority 1983, dated 1984)
